# Source: ChEMBL document CHEMBL3616471, “Synthesis and in vitro antitumor evaluation of betulin acid ester derivatives as novel apoptosis inducers” (Eur J Med Chem, 2015)
# Active and inactive are the calls of the source. The calls are words filed in the database; no cut-off is given here.
# Key:
# MGC-803 [1] = assay: Cytotoxicity against human MGC803 cells after 72 hrs by MTT assay; assay type: functional, cell-based
# PC-3 [2] = assay: Cytotoxicity against human PC3 cells after 72 hrs by MTT assay; assay type: functional, cell-based
# Bcap37 [3] = assay: Cytotoxicity against human Bcap37 cells after 72 hrs by MTT assay; assay type: functional, cell-based
# A-375 [4] = assay: Cytotoxicity against human A375 cells after 72 hrs by MTT assay; assay type: functional, cell-based
# MCF7 [5] = assay: Cytotoxicity against human MCF7 cells after 72 hrs by MTT assay; assay type: functional, cell-based
# [6] = Cytotoxicity against mouse NIH/3T3 cells after 72 hrs by MTT assay; assay type: cell-based; settings: nih3t3, 72 h
# MGC-803 [7] = assay: Selectivity index, ratio of IC50 for mouse NIH/3T3 cells to IC50 for human MGC803 cells; assay type: functional
# PC-3 [8] = assay: Selectivity index, ratio of IC50 for mouse NIH/3T3 cells to IC50 for human PC3 cells; assay type: functional
# Bcap37 [9] = assay: Selectivity index, ratio of IC50 for mouse NIH/3T3 cells to IC50 for human Bcap37 cells; assay type: functional
# A-375 [10] = assay: Selectivity index, ratio of IC50 for mouse NIH/3T3 cells to IC50 for human A375 cells; assay type: functional
# MCF7 [11] = assay: Selectivity index, ratio of IC50 for mouse NIH/3T3 cells to IC50 for human MCF7 cells; assay type: functional
# MGC-803 [12] = assay: Induction of apoptosis in human MGC803 cells assessed as pyknosis at 5 uM after 12 to 48 hrs using acridine orange/ethidium bromide staining by fluorescence microscopic analysis; assay type: functional, cell-based
# MGC-803 [13] = assay: Induction of apoptosis in human MGC803 cells assessed as formation of nicks in DNA at 5 uM after 48 hrs by TUNNEL assay; assay type: functional, cell-based
# MGC-803 [14] = assay: Induction of apoptosis in human MGC803 cells assessed as apoptosis ratio at 10 uM after 36 hrs using annexin-V and propidium iodide staining by flow cytometry; assay type: functional
# MGC-803 [15] = assay: Induction of apoptosis in human MGC803 cells assessed as apoptosis ratio at 10 uM using annexin-V and propidium iodide staining by flow cytometry; assay type: functional, cell-based; settings: TDE = time-dependent effect
# MGC-803 [16] = assay: Ratio of betulin IC50 to compound IC50 for human MGC803 cells; assay type: functional
# PC-3 [17] = assay: Ratio of betulin IC50 to compound IC50 for human PC3 cells; assay type: functional
# Bcap37 [18] = assay: Ratio of betulin IC50 to compound IC50 for human Bcap37 cells; assay type: functional
# A-375 [19] = assay: Ratio of betulin IC50 to compound IC50 for human A375 cells; assay type: functional
# MCF7 [20] = assay: Ratio of betulin IC50 to compound IC50 for human MCF7 cells; assay type: functional
# MGC-803 [21] = assay: Induction of apoptosis in human MGC803 cells assessed as membrane blebbing at 5 uM after 12 to 48 hrs using acridine orange/ethidium bromide staining by fluorescence microscopic analysis; assay type: functional, cell-based
# MGC-803 [22] = assay: Induction of apoptosis in human MGC803 cells assessed as cell budding at 5 uM after 12 to 48 hrs using acridine orange/ethidium bromide staining by fluorescence microscopic analysis; assay type: functional, cell-based
# MGC-803 [23] = assay: Induction of apoptosis in human MGC803 cells assessed as apoptotic cells at 5 uM after 12 to 48 hrs using Hoechst 33258 staining by fluorescence microscopic analysis; assay type: functional, cell-based
# MGC-803 [24] = assay: Induction of apoptosis in human MGC803 cells assessed as chromatin condensation at 5 uM after 12 to 48 hrs using Hoechst 33258 staining by fluorescence microscopic analysis; assay type: functional, cell-based
# MGC-803 [25] = assay: Induction of apoptosis in human MGC803 cells assessed as apoptotic bodies at 5 uM after 12 to 48 hrs using Hoechst 33258 staining by fluorescence microscopic analysis; assay type: functional, cell-based
smiles,measurement,setting,value
C=C(C)[C@@H]1CC[C@]2(COC(=O)CCC(=O)N3CCCCC3)CC[C@]3(C)[C@H](CC[C@@H]4[C@@]5(C)CC[C@H](O)C(C)(C)[C@@H]5CC[C@]43C)[C@@H]12,Activity,MGC-803 [1],Dose-dependent effect
same,IC50,"MGC-803 [1]; MGC-803, 72 h",4.3 µM
same,Activity,PC-3 [2],Dose-dependent effect
same,IC50,"PC-3 [2]; PC-3, 72 h",4.5 µM
same,Activity,Bcap37 [3],Dose-dependent effect
same,IC50,"Bcap37 [3]; Bcap37, 72 h",5.2 µM
same,Activity,A-375 [4],Dose-dependent effect
same,IC50,"A-375 [4]; A-375, 72 h",7.5 µM
same,Activity,MCF7 [5],Dose-dependent effect
same,IC50,"MCF7 [5]; MCF7, 72 h",5.2 µM
same,Activity,[6],Non-toxic
same,Ratio IC50,MGC-803 [7],8.23
same,Ratio IC50,PC-3 [8],7.86
same,Ratio IC50,Bcap37 [9],6.81
same,Ratio IC50,A-375 [10],4.72
same,Ratio IC50,MCF7 [11],6.8
same,Activity,MGC-803 [12],Active
same,Activity,MGC-803 [13],Active
same,Activity,MGC-803 [14],31.11%
same,Activity,MGC-803 [15],tde
same,Ratio IC50,MGC-803 [16],4
same,Ratio IC50,PC-3 [17],4
same,Ratio IC50,Bcap37 [18],4
same,Ratio IC50,A-375 [19],4
same,Ratio IC50,MCF7 [20],4
same,Activity,MGC-803 [21],Active
same,Activity,MGC-803 [22],Active
same,Activity,MGC-803 [23],Active
same,Activity,MGC-803 [24],Active
same,Activity,MGC-803 [25],Active
